Patent US9827236B2, “Method of inhibiting the glycation of nutrient and endogenous proteins and peroxidation of nutrient and endogenous lipids” (priority 2014, dated 2017)

Assays:
[1] = tested on: nutrient lipid (PUFA, MUFA) peroxidation; test: Inhibition of nutrient lipid peroxidation, in vitro, iodometric titration
Protocol: Percentage inhibition was determined using an in vitro experiment. Olive oil, a polyunsaturated fatty acid (PUFA) and safflower oil, a monounsaturated fatty acid (MUFA) were used to simulate nutrient lipids.
In another embodiment, peroxidation is induced in nutrient lipids by thermally processing them at various temperatures and with various levels of alkalinity. The processing is repeated by adding the identified peroxidation inhibitor. The nutrient lipid in this case could be polyunsaturated fatty acid or monounsaturated fatty acid in liquid, semisolid or solid form.
(§1) The effectiveness of the inhibiting agents and their combinations were ascertained using a series of in vitro experiments with nutrient lysine or collage protein, various sugars, natural polyunsaturated fatty acids and monounsaturated fatty acids and natural, pure form of inhibiting agents in extract forms. Absorbance values, measured using a spectrophotometer, were used to determine and compare formation of glycated proteins. Industry standard iodometric titration was used to determine and compare peroxidation levels in lipids.
(§2) In the case of inhibition of nutrient protein glycation and nutrient lipid peroxidation for disease prevention, it is recommended that the amount of inhibiting agent to be combined with the nutrient protein or nutrient lipid be as shown in the Table 1. Further, a combination of such inhibiting agents could be applied to increase the effectiveness of inhibition.

[2] = tested on: nutrient protein (lysine) in the presence of reducing sugars; test: Inhibition of nutrient protein glycation, in vitro, absorbance by spectrophotometer
Protocol: Percentage inhibition was determined using an in vitro experiment. Lysine was used to simulate the nutrient protein.
In one embodiment of the present application, glycation is induced in the nutrient proteins by combining them with different types of sugars and thermally processing the combination at various temperatures and with various levels of alkalinity. The processing is repeated by adding the identified glycation inhibitor. The nutrient protein in this case could be lysine or any other nutrient protein in liquid, semisolid or solid form.
as §1, §2

[3] = tested on: nutrient protein (lysine); test: Effect of temperature on protein glycation, in vitro, spectrophotometer; conditions: for % decrease in AGE formation from 100 to 60 deg C.: protein glycation
From the text: (§3) In one embodiment of the present application, glycation is induced in the nutrient proteins by combining them with different types of sugars and thermally processing the combination at various temperatures and with various levels of alkalinity. The processing is repeated by adding the identified glycation inhibitor. The nutrient protein in this case could be lysine or any other nutrient protein in liquid, semisolid or solid form. In the context of this invention, thermal processing implies heating the food at various temperatures using any method of cooking such as baking, roasting, frying, boiling, etc. […] The effectiveness of the inhibiting agents and their combinations were ascertained using a series of in vitro experiments with nutrient lysine or collage protein, various sugars, natural polyunsaturated fatty acids and monounsaturated fatty acids and natural, pure form of inhibiting agents in extract forms. Absorbance values, measured using a spectrophotometer, were used to determine and compare formation of glycated proteins. Industry standard iodometric titration was used to determine and compare peroxidation levels in lipids.

[4] = tested on: nutrient protein (lysine); test: Effect of pH variation on protein glycation, in vitro, spectrophotometer; conditions: for % decrease om AGE formation with decreasing pH: protein glycation
From the text: as §3

Row | Molecule | Concentration needed for 50% inhibition, Lipid Peroxidation [1] [%] | Concentration needed for 50% inhibition, Protein Glycation [2] [%] | Absorbance at different temperatures ([3]; 60 deg C.) | Absorbance at different temperatures ([3]; 80 deg C.) | Absorbance at different temperatures ([3]; 100 deg C.) | % decrease in AGE formation from 100 to 60 deg C. [3] [%] | Absorbance at different pH values ([4]; pH 8) | Absorbance at different pH values ([4]; pH 10) | Absorbance at different pH values ([4]; ph 4) | % decrease om AGE formation with decreasing pH [4] [%]
1 | O=C1O[C@H]([C@@H](O)CO)C(O)=C1O [Antioxidant (Ascorbic Acid), Ascorbic Acid] | 11 | 7 |  |  |  |  |  |  |  | 
2 | NC(=O)c1cccnc1 [Antioxidant (Niacinamide), Niacinamide] | 13 | 15 |  |  |  |  |  |  |  | 
3 | O=C(O[C@@H]1Cc2c(O)cc(O)cc2O[C@@H]1c1cc(O)c(O)c(O)c1)c1cc(O)c(O)c(O)c1 [Catechin (EGCG), EGCG] | 9 | 13 |  |  |  |  |  |  |  | 
4 | NCCC(=O)N[C@@H](Cc1cnc[nH]1)C(=O)O [Chelating agent (Carnosine), Carnosine] | 12 | 16 |  |  |  |  |  |  |  | 
5 | O=C(CO)[C@@H](O)[C@H](O)[C@H](O)CO [Fructose] |  |  | 0.1 | 0.37 | 0.5 | 79.1 | 0.5 | 0.65 | 0.07 | 89.4
6 | OC[C@H]1O[C@@H](O[C@H]2[C@H](O)[C@@H](O)C(O)O[C@@H]2CO)[C@H](O)[C@@H](O)[C@H]1O (some centres unmarked) [Lactose] |  |  | 0.06 | 0.18 | 0.17 | 67.9 | 0.17 | 0.22 | 0.02 | 90.8
7 | OC[C@H]1O[C@H](O[C@H]2[C@H](O)[C@@H](O)[C@H](O)O[C@@H]2CO)[C@H](O)[C@@H](O)[C@@H]1O [Maltose] |  |  | 0.04 | 0.22 | 0.22 | 80.0 | 0.22 | 0.26 | 0.04 | 84.4
8 | Oc1ccc(C=Cc2cc(O)cc(O)c2)cc1 [Phenol (Resveratrol), Resveratrol] | 8 | 10 |  |  |  |  |  |  |  | 
9 | O=C[C@H](O)[C@H](O)[C@H](O)CO [Ribose] |  |  | 0.13 | 0.52 | 0.59 | 78.1 | 0.59 | 0.79 | 0.09 | 88.4
10 | Tocopherol [Antioxidant (Tocopherol)] | 15 | 17 |  |  |  |  |  |  |  | 
